Laboratory results taken from US20240199613A1 (TAKEDA PHARMACEUTICAL COMPANY LIMITED, priority 2021, published 2024).
pEC50: −log10 of the molar value.

Columns and labels:
[1] = biological target: human activated kallikrein enzyme (Homo sapiens, UniProt P03952); experiment: Inhibition of activated plasma kallikrein, fluorogenic peptide substrate (PFR-AMC) assay, 500 pM enzyme format; format: biochemical; settings: 500 pM activated kallikrein, 300 uM PFR-AMC, 30 min preincubation, 10 min reaction, room temperature; read-out: Primary Dose Response Assay: Average EC50
Sequence of human activated kallikrein enzyme (P03952 391-638 limits assumed): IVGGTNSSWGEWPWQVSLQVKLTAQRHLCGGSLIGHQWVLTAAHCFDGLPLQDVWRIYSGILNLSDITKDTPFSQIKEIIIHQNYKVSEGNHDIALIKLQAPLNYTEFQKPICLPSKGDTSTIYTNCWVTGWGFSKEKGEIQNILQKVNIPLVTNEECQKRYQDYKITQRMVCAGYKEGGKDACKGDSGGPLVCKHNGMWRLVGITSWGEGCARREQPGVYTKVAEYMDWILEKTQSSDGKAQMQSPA
Sequence of human activated kallikrein enzyme (P03952 20-390 partner limits assumed): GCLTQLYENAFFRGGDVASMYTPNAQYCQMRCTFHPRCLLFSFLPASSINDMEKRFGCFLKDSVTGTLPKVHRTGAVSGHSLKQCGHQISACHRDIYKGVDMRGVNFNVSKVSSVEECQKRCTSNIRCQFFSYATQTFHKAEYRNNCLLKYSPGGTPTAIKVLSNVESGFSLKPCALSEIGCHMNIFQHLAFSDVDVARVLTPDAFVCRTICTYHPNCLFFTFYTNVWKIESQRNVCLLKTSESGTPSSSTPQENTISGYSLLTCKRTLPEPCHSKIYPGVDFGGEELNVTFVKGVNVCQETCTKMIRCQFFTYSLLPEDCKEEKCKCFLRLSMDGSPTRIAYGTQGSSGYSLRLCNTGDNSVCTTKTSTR
Procedure, shortened: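 500 pM enzyme preincubated 30 min at room temperature with inhibitor in 20 mM Tris pH 7.5, 150 mM NaCl, 1 mM EDTA, 0.1% PEG-400, 0.1% Triton X-100. Reaction started with 300 uM PFR-AMC and run 10 min at room temperature. Fluorescence read at 380 nm excitation/460 nm emission.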

[2] = biological target: T1, plasma kallikrein (Homo sapiens, UniProt P03952); experiment: Neat human plasma assay: contact pathway-activated (FXIIa) plasma, PFR-AMC substrate; format: biochemical; settings: citrated human plasma (78% final), 10 nM human FXIIa, 100 μM PFR-AMC, room temperature
T1 construct: from tissue; host or cells: sodium citrate collected human plasma (78% final)
T1 sequence (P03952 391-638 limits assumed): as the sequence (P03952 391-638 limits assumed) above
T1 sequence (P03952 20-390 partner limits assumed): as the sequence (P03952 20-390 partner limits assumed) above
Procedure, shortened: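 Compounds spiked into citrated human or rat plasma (78% final), or plasma taken from orally or IV dosed rats, activated with 10 nM human FXIIa; 100 μM PFR-AMC cleavage read at 360/480 nm for 5 min, room temperature. Rates vs concentration fit to 4-parameter IC50/IC90 equation.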

Row | SMILES | pEC50 [1] | IC90 [2]
1 | Cc1ccnc([C@H]2C[C@@H]2c2cc(N3CC4(COC4)C3)c3ccc(N[C@H](C)c4cn5cc(C6CC6)cc(N6CC(=O)N(C)C6=O)c5n4)cc3n2)n1 [Example 101, 1-(6-cyclopropyl-2-((R)-1-((2-((1S,2S)-2-(4-methylpyrimidin-2-yl)cyclopropyl)-4-(2-oxa-6-azaspiro[3.3]heptan-6-yl)quinolin-7-yl)amino)ethyl)imidazo[1,2-a]pyridin-8-yl)-3-methylimidazolidine-2,4-dione] | ≥ 9.00 | ≤ 400 nM
2 | Cc1ccnc([C@H]2C[C@@H]2c2cc(-n3ccnc3)c3ccc(NCc4cn5cc(C6CC6)cc(N6CC(=O)N(C)C6=O)c5n4)cc3n2)n1 (racemic) [Example 25, rac-1-(2-(((4-(1H-imidazol-1-yl)-2-((1S*,2S*)-2-(4-methylpyrimidin-2-yl)cyclopropyl)quinolin-7-yl)amino)methyl)-6-cyclopropylimidazo[1,2-a]pyridin-8-yl)-3-methylimidazolidine-2,4-dione] | ≥ 9.00 | 1500 to 10000 nM
